Data from patent US20030022878A1, “TELOMERASE INHIBITOR” (priority 1997, published 2003).
Where “and” joins values, the source holds several entries; their conditions need not be identical. Equal entries are not always repeated.

Key:
[1] = biological target: T1, telomerase (Homo sapiens, UniProt O14746); assay: Telomerase inhibiting activity in cell-free system (TRAP method); type: biochemical
T1 construct: the resulting extract was centrifuged to obtain the supernatant as a cell extract for activity measurement; endogenous in cells
Protocol: Telomerase inhibiting activity of EGCG, EGC, ECG, and EC (all products of Sigma) was measured according to the Telomeric Repeat Amplification Protocol (TRAP) method described by Kim et al. (Kim, N. W. et al., Science, 266, 2011-2015, 1994) as follows:
Cells were washed with ice-cold PBS (phosphate buffered saline) and suspended again in PBS to count the cells. After centrifuging this cell suspension, the resulting cell mass was suspended in a TRAP assay buffer (10 mM Tris-HCl, pH 7.5, 1 mM MgCl2, 1 mM EDTA, 0.5% CHAPS, 10% glycerine, 5 mM 2-mercaptoethanol, and 0.1 mM 4-(2-aminoethyl)-benzenesulfonyl fluoride hydrochlorine), then the suspension was quick-frozen with liquid nitrogen. After melting, the suspension was allowed to stand in an ice bath for 30 minutes for extraction, then the resulting extract was centrifuged to obtain the supernatant as a cell extract for activity measurement. […]
The PCR products obtained in the abovementioned procedure were resolved by polyacrylamide gel electrophoresis and the resulting DNA bands stained with SYBR Green (Takara Shuzo) were detected by irradiation with a UV transilluminator.
The detected bands were photographed. The intensity of each band was quantitatively analyzed using the NIH Image 1.60 software program. Telomerase activity was expressed as the intensity of a sample band relative to that of the band corresponding to the ITAS fragment (control).
Telomerase activity in reaction solutions of 8 different EGCG concentrations ranging from 0.1 to 20 μM was measured in the same manner as described in Example 1 except that a primer, PS, was used at two different concentrations. […]
Telomerase activity in reaction solutions containing powder sample 1 obtained in Production Example 1, powder sample 2 (a tea catechin extract: THEA-FLAN 90S, a trade name, a product of ITO EN, Ltd), and EGCG at different concentrations in the following ranges was measured in the same manner as described in Example 1. […]

[2] = biological target: T2, intracellular telomerase activity, colon adenocarcinoma HT29 cells (Homo sapiens, UniProt O14746); assay: Telomerase inhibiting activity in cells (Streptolysin O permeabilization, TRAP); type: cell-based; conditions: 15 μM EGCG for 2 hours
T2 construct: endogenous in cells; host or cells: HT29
Protocol: (§1) The telomerase inhibiting activity of EGCG was assayed in monoblastoid leukemia U937 cells (American Type Culture Collection, ATCC) and colon adenocarcinoma HT29 cells.
(§2) An RPMI1640 medium (Nissui) supplemented with 10% fetal bovine serum (FBS) was used for U937 cells, and an RPMI1640 medium supplemented with 5% FBS and 5% fetal calf serum (FCS) was used for HT29 cells.
(§3) The cells were incubated in a 15 μM EGCG solution for 2 hours and washed in PBS. The washed cells were suspended in an RPMI1640 medium (without serum) at a concentration of 2×10^6 cells/ml, then Streptolysin O (Sigma, 5 U/ml), TS primer (10 μM), spermidine (1 mM), and Imipramine (50 μM) were added, and the admixture was incubated at room temperature for 10 minutes. Streptolysin O is a substance which increases the permeability of a substance through the cell membrane, and enables the TS primers and other substances to be incorporated into the cell. […]
(§4) The telomerase products thus obtained were resolved by polyacrylamide gel electrophoresis, after which DNA bands were stained with SYBR Green (Takara Shuzo) and detected by irradiation with a UV transilluminator. The intensity of each band was quantitatively analyzed using the NIH Image 1.60 software program and telomerase activity was expressed as the intensity of a sample band relative to that of the band corresponding to the ITAS fragment (control). […]

[3] = biological target: T3, intracellular telomerase activity, monoblastoid leukemia U937 cells (Homo sapiens, UniProt O14746); assay: as above; type: cell-based; conditions: 15 μM EGCG for 2 hours
T3 construct: endogenous in cells; host or cells: U937
Protocol: as §1, §2, §3, §4

[4] = biological target: T4, telomerase, HT29 cells (Homo sapiens, UniProt O14746); assay: Telomerase activity in extract of EGCG-treated cells (mechanism); type: cell-based; conditions: 15 μM EGCG for 2 hours, washed, extracted
T4 construct: endogenous in cells; host or cells: HT29
Protocol: (§5) The cells were treated with 15 μM EGCG for 2 hours and washed with ice-cold PBS. The cell mass obtained by centrifugation was suspended in a TRAP assay buffer and the resulting suspension was quick-frozen with liquid nitrogen. After melting, the suspension was allowed to stand in an ice bath for 30 minutes, then the resulting extract was centrifuged to obtain the supernatant as a cell extract. A test compound, TS primer (50 ng), 50 μM dNTPs, and T4g32 protein (Behringer-Manheim) were added to a specified volume of the cell extract (corresponding to 200 to 1000 cells), and the admixture was incubated at 20° C. for 30 minutes. After reaction, CX primer (100 ng) was added to the reaction solution, then PCR was performed in the presence of Gene Taq DNA polymerase (2 U) and ITAS (10^−18 g), i.e., (94° C., 40 seconds→50° C., 40 seconds→72° C., 60 seconds)×30 cycles→72° C., 2 minutes, to obtain PCR products. The PCR products thus obtained were resolved by polyacrylamide gel electrophoresis and the resulting DNA bands stained with SYBR Green (Takara Shuzo) were detected by irradiation with a UV transilluminator. The intensity of each band was quantitatively analyzed using the NIH Image 1.60 software program. Telomerase activity was expressed as the intensity of a sample band relative to that of the band corresponding to the ITAS fragment. […]

[5] = biological target: T5, telomerase, U937 cells (Homo sapiens, UniProt O14746); assay: as above; type: cell-based; conditions: 15 μM EGCG for 2 hours, washed, extracted
T5 construct: endogenous in cells; host or cells: U937
Protocol: as §5

[6] = test system: HT29 cells; assay: Effect of EGCG on cell growth in subculture; type: cell-based; conditions: HT29 subculture lines, medium with 15 μM EGCG
Protocol: (§6) U937 cells and HT29 cells were each subcultured on a medium with and without EGCG to study the effect of addition of EGCG on cell growth. The medium used was the same as used in Example 4. Five subculture lines for U937 cells and nine subculture lines for HT29 cells were prepared. The first culture of each line was made by inoculating cells of each stock culture at a density of 5×10^5 cells per 10-cm dish. For each subculture, two lines were cultured on a medium without EGCG (control lines) and the rest of the lines were cultured on a medium supplemented with 15 μM EGCG. Cells were passaged, sampled and counted every four days. The incubation medium was freshly changed every day. […] PD is the number of cycles in which the cell population doubles during cell growth and is calculated by monitoring cell counts using a hemocytometer.

[7] = test system: U937 cells; assay: Effect of EGCG on cell growth in subculture; type: cell-based; conditions: U937 subculture lines, medium with 15 μM EGCG
Protocol: as §6

[8] = test system: HT29 cells; assay: TRF (telomere) length by Southern blotting; type: cell-based; conditions: HT29 cells in crisis, 15 μM EGCG
Protocol: HT 29 cells from PD57 to PD60 in cell crisis were pooled and the genomic DNA was prepared by a salting-out/ethanol precipitation method (Stratagene). Further, integrity of the isolated genomic DNA was confirmed by gel electrophoresis (ethidium bromide staining).
The isolated genomic DNA (10 μg) was digested with HinfI and RsaI and the resulting digests were subjected to Southern blotting by the ordinary method, after which DNA fragments were detected using a TeloQuant assay kit (PharmMingen).
Accordingly, if a genomic DNA is digested with the abovementioned restriction enzymes, only the telomere region would remain undigested. This DNA fragment is called the Terminal Restriction Fragment (TRF) which can be detected by Southern blotting to analyze telomere lengths. TRFs of EGCG-treated or untreated HT29 cells obtained as mentioned above were detected using a TeloQuant assay kit. […] It was observed that TRFs in the cells which entered crisis due to the EGCG treatment (●) were shortened by about 1.1 kb as compared to those in the untreated cells (◯). Further, it was confirmed that successive EGCG treatment of HT29 cells caused telomere diminishment.

[9] = test system: experimentally-induced tumors; conditions: nude mice with experimentally-induced tumors; cited from earlier work
[10] = test system: malignant melanoma cells; conditions: oral administration; cited from earlier work

T1 sequence (O14746 whole entry): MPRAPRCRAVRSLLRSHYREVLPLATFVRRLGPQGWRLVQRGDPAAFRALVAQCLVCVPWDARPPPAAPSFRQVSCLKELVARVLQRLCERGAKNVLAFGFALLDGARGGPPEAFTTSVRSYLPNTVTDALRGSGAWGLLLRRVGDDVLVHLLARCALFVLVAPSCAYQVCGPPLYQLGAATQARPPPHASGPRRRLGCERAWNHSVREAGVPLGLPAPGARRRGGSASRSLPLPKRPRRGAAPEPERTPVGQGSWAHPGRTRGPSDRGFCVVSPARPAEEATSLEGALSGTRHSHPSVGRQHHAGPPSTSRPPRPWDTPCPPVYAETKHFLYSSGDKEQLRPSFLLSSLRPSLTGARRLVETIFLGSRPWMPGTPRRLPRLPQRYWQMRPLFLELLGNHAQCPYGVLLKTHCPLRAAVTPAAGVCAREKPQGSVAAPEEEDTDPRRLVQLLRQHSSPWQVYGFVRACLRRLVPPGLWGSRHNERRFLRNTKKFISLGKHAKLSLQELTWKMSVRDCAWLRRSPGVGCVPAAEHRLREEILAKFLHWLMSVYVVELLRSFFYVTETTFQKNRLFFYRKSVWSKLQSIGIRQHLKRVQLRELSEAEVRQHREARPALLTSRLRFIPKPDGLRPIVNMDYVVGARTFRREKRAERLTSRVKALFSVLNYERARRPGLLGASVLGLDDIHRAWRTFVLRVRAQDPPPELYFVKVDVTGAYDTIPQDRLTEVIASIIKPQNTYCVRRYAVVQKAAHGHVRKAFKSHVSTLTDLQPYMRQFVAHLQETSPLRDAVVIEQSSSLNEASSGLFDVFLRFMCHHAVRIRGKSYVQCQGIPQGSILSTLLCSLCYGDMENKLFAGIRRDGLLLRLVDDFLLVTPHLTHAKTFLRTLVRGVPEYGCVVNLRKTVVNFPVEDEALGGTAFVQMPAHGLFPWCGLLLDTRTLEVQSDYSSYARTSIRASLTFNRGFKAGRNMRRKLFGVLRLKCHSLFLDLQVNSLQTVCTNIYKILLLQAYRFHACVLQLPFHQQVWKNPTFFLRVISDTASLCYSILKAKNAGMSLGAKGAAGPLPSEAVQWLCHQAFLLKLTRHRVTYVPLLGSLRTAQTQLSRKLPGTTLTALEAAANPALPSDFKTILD
T2 sequence (O14746 whole entry): as above
T4 sequence (O14746 whole entry): as above
T5 sequence (O14746 whole entry): as above
T3 sequence (O14746 whole entry): as above

(−) epigallocatechin gallate [EGCG]
Ki ([1]; Dixon plot, EGCG 0.1 to 20 μM, primer at two concentrations): ~100 nM
telomerase inhibiting activity compared among catechins (FIG. 1) ([1]; TRAP, cell extract): highest inhibiting activity
Telomerase inhibition, IC50 ([1]; concentration suppressing DNA amplification of control by 50%, samples tested in μg/ml ranges): 0.25
intracellular telomerase activity [2]: markedly inhibited
intracellular telomerase activity [3]: markedly inhibited
telomerase activity tested in vitro in extract after treatment of cells [4]: no effect
telomerase activity tested in vitro in extract after treatment of cells [5]: no effect
day at which cells entered cell crisis [6]: 75 days and 57 days
day at which cells entered cell crisis [7]: 53 days and 44 days and 29 days
shortening of TRFs compared to untreated cells [8]: about 1.1 kb
cancer cell growth in nude mice [9]: effectively suppressed
metastasis of malignant melanoma cells [10]: suppressed
